Measured values taken from patent US11523986B2, “Intranasally administered antihistamines and uses thereof” (priority 2019, dated 2022).

Experiments:
in vitro = conditions: human, DPBS pH 7.4, 120 min, 37° C., diphenhydramine 100 μM, atenolol 100 μM, caffeine 50 μM co-dosed
Method: (§1) EpiAirway™ tissues, plated in 24-well plates, and accompanying culture medium and assay buffer solutions, were purchased from MatTek Corporation (Ashland, Mass.). According to the EpiAirway™ AIR-100 Use Protocol provided by MatTek, the tissues were returned to culture immediately upon receipt. In a tissue culture hood, using sterile technique, 1.0 mL of cold medium (AIR-100-ASY) was dispensed into each well of the 6-well plate (n=3) and one tissue insert was transferred to each of the wells. The apical surface of the tissue was exposed to the air (no medium was added to the insert). The tissues were equilibrated overnight at 37° C. in a 5% CO2 incubator. The culture medium was then replaced with fresh, pre-warmed medium until use.
(§2) The unidirectional permeation experiment was conducted according to protocol 18APCIP2 and relevant SOPs of Absorption Systems. Prior to the permeability assay, the culture medium in the plate was aspirated; and ˜1 mL of Dulbecco's phosphate-buffered saline (DPBS) was added to the well to remove any remaining residue of culture medium from the underside of the insert. The tissues were transferred to a 24-well plate with DPBS (750 μL) in each well as receiver, and dosing solution (400 μL) was added to each insert. A 100 μL aliquot was immediately removed as the 0-minute donor sample. Receiver samples (200 μL) were collected at 30, 60, and 120 minutes, replaced with an equal volume of fresh pre-warmed blank buffer at 30 and 60 minutes. The donor side was sampled (100 μL) at 0 and 120 minutes. The assay plate was placed in a humidified CO2 incubator at 37° C. during the assay period.
(§3) After 120 minutes, the tissues were rinsed with DPBS and gently dried with tissue wipes after aspiration of the assay buffer. The insert membranes with tissues attached were carefully removed from the insert apparatus, placed in a tared centrifuge tube, and weighed.
(§4) The apparent permeability coefficient (Papp) and recovery were calculated as follows: Papp=(dCr/dt)×Vr/(A×Cini) (1) Recovery (%)=[((Cr,final×Vr)+(Cd,final×Vd))/(Cini×Vd)]×100 (2) Recovery (%)=[((Cr,final×Vr)+(Cd,final×Vd)+(Tissue Accumulation))/(Cini×Vd)]×100 (3)
(§5) where, • dCr/dt is the slope of cumulative receiver concentration vs. time in μM s^−1; • Vr is the volume of the receiver compartment; • Vd is the volume of the donor compartment; • A is the diffusional area of the membrane; • Cini is the donor concentration at 0 minutes in μM; • CD, final is the donor concentration at 120 minutes in μM; • Cr, final is the receiver concentration at 120 minutes in μM.
(§6) With DPBS, pH 7.4 used on both the donor and receiver sides, permeability was initiated with addition of 0.4 mL of dosing solution into the inserts and of 0.75 mL of blank buffer into the wells of the assay plate. The assay was performed for 120 minutes in a humidified incubator at 37° C.

EpiAirway tissues = EpiAirway tissues after 120 min, 100 μM
Method: as §1, §2, §3, §4, §5, §6

rhinovirus colds = conditions: intranasal, phosphate buffer vehicle, patients; Gaffney et al. 1987; cited from earlier work

Row | SMILES | Papp A→B at 120 min (in vitro; pH 7.4, Papp (10^−6 cm/s) Average ± SD, apical dosing, average) [×10⁻⁶ cm/s] | Papp A→B at 120 min (in vitro; pH 7.4, Papp (10^−6 cm/s) R1, apical dosing, replicate R1) [×10⁻⁶ cm/s] | Papp A→B at 120 min (in vitro; pH 7.4, Papp (10^−6 cm/s) R2, apical dosing, replicate R2) [×10⁻⁶ cm/s] | Papp A→B at 120 min (in vitro; pH 7.4, Papp (10^−6 cm/s) R3, apical dosing, replicate R3) [×10⁻⁶ cm/s] | Tissue Accumulation (nmol/mg) Average ± SD (EpiAirway tissues; average) [nmol/mg] | Tissue Accumulation (nmol/mg) R1 (EpiAirway tissues; replicate R1) [nmol/mg] | Tissue Accumulation (nmol/mg) R3 (EpiAirway tissues; replicate R3) [nmol/mg] | therapeutic effect in reducing signs and symptoms of rhinovirus colds (rhinovirus colds)
1 | Cn1c(=O)c2c(ncn2C)n(C)c1=O [Caffeine, caffeine] | 29.1 | 30.9 | 28.2 | 28.2 |  |  |  | 
2 | CN(C)CCOC(c1ccccc1)c1ccccc1 [Diphenhydramine, diphenhydramine] |  |  |  |  | 0.212 ± 0.0222 | 0.188 | 0.218 | no therapeutic effect
